Calls of active or inactive are those of the source. No cut-off for these calls is given here.
Columns and labels:
Plasmodium falciparum [1] = experiment: (§1) Inhibition of Plasmodium falciparum recombinant carbonic anhydrase
[2] = as §1
Plasmodium berghei [3] = experiment: Antimalarial activity against Plasmodium berghei infected mice (Mus musculus) at 2.5 to 25 mg/kg; type: functional, organism-based
BC = experiment: Cytotoxicity against human BC cells; type: functional, cell-based
Plasmodium falciparum [4] = experiment: Ex vivo inhibition of Plasmodium falciparum growth in cultured cells after 48hrs as [3H]hypoxanthine uptake; type: functional, organism-based
KB = experiment: Cytotoxicity against human KB cells; type: functional, cell-based
Plasmodium berghei [5] = experiment: Antimalarial activity against Plasmodium berghei infected mice (Mus musculus); type: functional; conditions: read-out: ID50 (the source's name)

## C=C[C@H]1CN2CC[C@H]1C[C@H]2[C@H](O)c1ccnc2ccc(OC)cc12
Plasmodium falciparum [1]
  Activity: inactive

## CC(=O)Nc1nnc(S(N)(=O)=O)s1 [ACETAZOLAMIDE]
[2]
  Ki: 0.315 µM
Plasmodium berghei [3]
  Activity: inactive
BC
  Activity: inactive
Plasmodium falciparum [4]
  IC50: 20 µM
KB
  Activity: inactive

## COc1ccc2c(CC(=O)Nc3ccccc3S(N)(=O)=O)cc(=O)oc2c1
[2]
  Ki: 1.44 µM
Plasmodium falciparum [4]
  IC50: > 50 µM

## Cn1ccnc1/C=N/CCCc1ccc(S(N)(=O)=O)cc1
[2]
  Ki: > 25 µM
Plasmodium falciparum [4]
  IC50: > 50 µM

## Cn1nc(S(N)(=O)=O)s/c1=N/C(=O)c1c(F)c(F)c(F)c(F)c1F
[2]
  Ki: 6.87 µM
Plasmodium falciparum [4]
  IC50: > 50 µM

## NS(=O)(=O)c1ccccc1NC(=O)N(c1ccccc1)c1ccccc1
[2]
  Ki: 1.99 µM
Plasmodium falciparum [4]
  IC50: > 50 µM

## NS(=O)(=O)c1ccc(CNC(=O)N(c2ccccc2)c2ccccc2)cc1
[2]
  Ki: 16 µM
Plasmodium falciparum [4]
  IC50: > 50 µM

## NS(=O)(=O)c1ccc(NS(=O)(=O)c2ccc(NC(=O)N(c3ccccc3)c3ccccc3)cc2)cc1
[2]
  Ki: 16.5 µM
Plasmodium falciparum [4]
  IC50: > 50 µM

## COc1ccc2c(CC(=O)Nc3ccc(S(N)(=O)=O)cc3)cc(=O)oc2c1
[2]
  Ki: 0.97 µM
Plasmodium falciparum [4]
  IC50: > 50 µM

## COc1ccc2c(CC(=O)Nc3cc(C(F)(F)F)c(S(N)(=O)=O)cc3S(N)(=O)=O)cc(=O)oc2c1
[2]
  Ki: 2.52 µM
Plasmodium falciparum [4]
  IC50: > 50 µM

## NS(=O)(=O)c1ccc(NNC(=O)c2cc3ccccc3oc2=O)cc1
[2]
  Ki: 4.06 µM
Plasmodium falciparum [4]
  IC50: > 50 µM

## NS(=O)(=O)c1ccc(CNC(=O)c2cc3ccccc3oc2=O)cc1
[2]
  Ki: 5.05 µM
Plasmodium falciparum [4]
  IC50: > 50 µM

## NS(=O)(=O)c1ccc(C/N=C/c2ccccc2Cl)cc1
[2]
  Ki: 0.25 µM
Plasmodium berghei [3]
  Activity: inactive
BC
  Activity: inactive
Plasmodium falciparum [4]
  IC50: 3.89 µM
KB
  Activity: inactive

## NS(=O)(=O)c1ccc(CCNC(=O)c2cc3ccccc3oc2=O)cc1
[2]
  Ki: 13.2 µM
Plasmodium falciparum [4]
  IC50: > 50 µM

## NC(=S)Nc1ccc(S(N)(=O)=O)cc1
[2]
  Ki: 2.1 µM
Plasmodium falciparum [4]
  IC50: > 50 µM

## NS(=O)(=O)c1cc(S(N)(=O)=O)c(C(F)(F)F)cc1NC(=O)c1cc2ccccc2oc1=O
[2]
  Ki: 9.03 µM
Plasmodium falciparum [4]
  IC50: > 50 µM

## COc1ccc2c(CC(=O)Nc3cccc(S(N)(=O)=O)c3)cc(=O)oc2c1
[2]
  Ki: 4.58 µM
Plasmodium falciparum [4]
  IC50: > 50 µM

## NS(=O)(=O)c1nnc(NS(=O)(=O)c2c(F)c(F)c(F)c(F)c2F)s1
[2]
  Ki: 2.58 µM
Plasmodium falciparum [4]
  IC50: > 50 µM

## NS(=O)(=O)c1nnc(NC(=O)c2c(F)c(F)c(F)c(F)c2F)s1
[2]
  Ki: 3.44 µM
Plasmodium falciparum [4]
  IC50: > 50 µM

## NS(=O)(=O)c1ccc(NC(=O)c2cc3ccccc3oc2=O)cc1
[2]
  Ki: 5.82 µM
Plasmodium falciparum [4]
  IC50: > 50 µM

## NS(=O)(=O)c1ccc(CNC(=S)NC(=O)c2ccc(Cl)c(Cl)c2)cc1
[2]
  Ki: 0.18 µM
BC
  Activity: inactive
Plasmodium falciparum [4]
  IC50: 1 µM
KB
  Activity: inactive
Plasmodium berghei [5]
  ED50: 10 mg/kg

## C[C@@H]1CC[C@H]2[C@@H](C)C(=O)O[C@@H]3O[C@@]4(C)CC[C@@H]1[C@]32OO4
Plasmodium falciparum [1]
  Activity: inactive

## CN(C)c1ccc(/C=N/CCCc2ccc(S(N)(=O)=O)cc2)cc1
[2]
  Ki: > 25 µM
Plasmodium falciparum [4]
  IC50: > 50 µM

## CCN(CC)CCCC(C)Nc1ccnc2cc(Cl)ccc12 (stereo not drawn) [CHLOROQUINE]
Plasmodium falciparum [1]
  Activity: inactive
Plasmodium berghei [5]
  ED50: 5 mg/kg

## NS(=O)(=O)c1ccc(NC(=O)Nc2ccc(Cl)c(Cl)c2)cc1
[2]
  Ki: 5.58 µM
Plasmodium falciparum [4]
  IC50: > 50 µM

## CC(=O)NS(=O)(=O)c1ccc(NC(=S)Nc2ccc(S(N)(=O)=O)cc2)cc1
[2]
  Ki: 4.62 µM
Plasmodium falciparum [4]
  IC50: > 50 µM

## NS(=O)(=O)c1ccc(/N=C/c2ccc3ccccc3c2Br)cc1
[2]
  Ki: 4.16 µM
Plasmodium falciparum [4]
  IC50: > 50 µM

## NS(=O)(=O)c1cccc(NC(=O)c2cc3ccccc3oc2=O)c1
[2]
  Ki: > 25 µM
Plasmodium falciparum [4]
  IC50: > 50 µM

## CN(C)c1ccc(/C=N/Cc2ccc(S(N)(=O)=O)cc2)cc1
[2]
  Ki: > 25 µM
Plasmodium falciparum [4]
  IC50: > 50 µM

## CCN(CC)C(=S)SNc1ccc(S(N)(=O)=O)cc1
[2]
  Ki: 3 µM
Plasmodium falciparum [4]
  IC50: > 50 µM

## NS(=O)(=O)c1ccccc1NS(=O)(=O)c1c(F)c(F)c(F)c(F)c1F
[2]
  Ki: 3.06 µM
Plasmodium falciparum [4]
  IC50: > 50 µM

## CN(C)c1ccc(/C=N/c2ccc(S(N)(=O)=O)cc2)cc1
[2]
  Ki: > 25 µM
Plasmodium falciparum [4]
  IC50: > 50 µM

## NS(=O)(=O)c1ccccc1NC(=O)c1cc2ccccc2oc1=O
[2]
  Ki: 18.5 µM
Plasmodium falciparum [4]
  IC50: > 50 µM

## CCN(CC)C(=S)SNCc1ccc(S(N)(=O)=O)cc1
[2]
  Ki: 8.39 µM
Plasmodium falciparum [4]
  IC50: > 50 µM

## NS(=O)(=O)c1nnc(NS(=O)(=O)C(F)(F)C(F)(F)C(F)(F)C(F)(F)C(F)(F)C(F)(F)C(F)(F)C(F)(F)F)s1
[2]
  Ki: 0.192 µM
Plasmodium falciparum [4]
  IC50: > 50 µM

## NS(=O)(=O)c1ccc(NC(=O)c2ccc(S(N)(=O)=O)cc2)cc1
[2]
  Ki: 3.05 µM
Plasmodium falciparum [4]
  IC50: > 50 µM

## NS(=O)(=O)c1nnc(NC(=S)NC(=O)Nc2ccccc2)s1
[2]
  Ki: 6.73 µM
Plasmodium falciparum [4]
  IC50: > 50 µM

## COc1ccc2c(CC(=O)NNc3ccc(S(N)(=O)=O)cc3)cc(=O)oc2c1
[2]
  Ki: 3.51 µM
Plasmodium falciparum [4]
  IC50: > 50 µM

Reference: ChEMBL document CHEMBL1142445, “Carbonic anhydrase inhibitors: inhibition of Plasmodium falciparum carbonic anhydrase with aromatic/heterocyclic sulfonamides-in vitro and in vivo studies” (Bioorg Med Chem Lett, 2008)
